Test results: US20260250269A1, “APOPTOSIS INHIBITOR SALTS FOR CANCER” (priority 2022, published 2026)
Several values for one entry are separate records, joined by “and”; a condition that tells them apart may be missing. Identical values can stand only once. Like-named read-outs stand apart in the source and are kept apart here.

How the values were obtained:
[1] = Solid-state thermal stability of the pamoate salt Form B; format: physicochemical
Procedure: Form B was placed at 25° C./92% relative humidity (RH) in an open container, at 40° C./75% RH in an open container, and at 60° C. in a tight container for 1 week. Samples were characterized by XRPD and HPLC and inspected for appearance including color change.

[2] = Hygroscopicity of Form B by dynamic vapor sorption (DVS); format: physicochemical
Procedure: Water sorption and desorption behavior of Form B was investigated by dynamic vapor sorption (DVS) at 25° C. with a cycle of 40-0-95-0-40% RH, dm/dt 0.002, minimum equilibration time of 60 min and maximum equilibration time 360 min.

[3] = Compression, dry grinding and wet granulation simulation experiments; format: physicochemical
Procedure: Compression: About 50 mg of Form B was compressed for 5 minutes under 10 MPa with a hydraulic press. Potential form change and degree of crystallinity were evaluated by XRPD.
Dry Grinding: About 20 mg of Form B was ground manually with a mortar and a pestle for 5 min. Potential form change and degree of crystallinity were evaluated by XRPD.
Wet Granulation: Water or ethanol was added drop wise to about 20 mg of Form B until the sample was wetted sufficiently. Wet sample was ground gently with a mortar and a pestle for 3 min. Post granulation sample was dried under ambient condition for 10 min. Potential form change and degree of crystallinity were evaluated by XRPD.

[4] = Competitive equilibration experiments of Form A and Form B; format: physicochemical
Procedure: About 5 mg of Form A and about 5 mg of the mixture of Form A and Form B were added to 0.2 mL saturated solutions in following solvents: water, ethanol, acetone, acetonitrile, ethyl acetate, and pyridine/water (1/9 v/v). Obtained suspensions were stirred at 25° C. and 50° C., respectively, for a duration between 4 days to 4 weeks. Solid parts (wet cakes) were isolated by centrifugation filtration and investigated by XRPD.

[5] = for Solubility / Solubility (in words): 37° C.; for Solubility: 24 hours; for Solubility (in words): PBS buffer
[6] = Solid form conversion on drying, heating or storage (XRPD); format: physicochemical
[7] = 25° C./92% RH open container, 1 week
[8] = 40° C./75% RH open container, 1 week
[9] = 60° C. in a tight container, 1 week
[10] = relative humidity 0.0 at 25° C.
[11] = relative humidity 10.0 at 25° C.
[12] = relative humidity 20.0 at 25° C.
[13] = relative humidity 30.0 at 25° C.
[14] = relative humidity 40.0 at 25° C.
[15] = relative humidity 50.0 at 25° C.
[16] = relative humidity 60.0 at 25° C.
[17] = relative humidity 70.0 at 25° C.
[18] = relative humidity 80.0 at 25° C.
[19] = relative humidity 90.0 at 25° C.
[20] = relative humidity 95.0 at 25° C.
[21] = after solubility test in mouse plasma
[22] = after solubility test in pH 7.4 PBS buffer

SMILES: COCCn1c2c([n+](Cc3cnccn3)c1C)C(=O)c1ccccc1C2=O.COCCn1c2c([n+](Cc3cnccn3)c1C)C(=O)c1ccccc1C2=O.O=C([O-])c1cc2ccccc2c(Cc2c(O)c(C(=O)[O-])cc3ccccc23)c1O [Form B]
- Appearance (Color) change [1, 7]: None
- Purity by HPLC [1, 7]: 99.4%
- XRPD [1, 7]: Form B
- Physical and chemical stability ([1]; 25° C./92% RH, 40° C./75% RH, 60° C., 1 week): physically stable and chemically stable
- Appearance (Color) change [1, 8]: None
- Purity by HPLC [1, 8]: 99.5%
- XRPD [1, 8]: Form B
- Appearance (Color) change [1, 9]: none
- Purity by HPLC [1, 9]: 99.4%
- XRPD [1, 9]: Form B
- Appearance (Color) change ([1]; Initial): None
- Purity by HPLC ([1]; Initial): 99.3%
- XRPD ([1]; Initial): Form B
- Solid form by XRPD after the DVS test [2]: still Form B
- Hygroscopicity (in words) ([2]; DVS at 25° C.): slightly hygroscopic
- 1st desorption weight % change [2, 10]: 0.02 weight %
- 1st sorption weight % change [2, 10]: 0.02 weight %
- 2nd desorption weight % change [2, 10]: 0.00 weight %
- 2nd sorption weight % change [2, 10]: 0.00 weight %
- 1st desorption weight % change [2, 11]: 0.06 weight %
- 1st sorption weight % change [2, 11]: 0.06 weight %
- 2nd desorption weight % change [2, 11]: 0.05 weight %
- 2nd sorption weight % change [2, 11]: 0.04 weight %
- 1st desorption weight % change [2, 12]: 0.09 weight %
- 1st sorption weight % change [2, 12]: 0.08 weight %
- 2nd desorption weight % change [2, 12]: 0.08 weight %
- 2nd sorption weight % change [2, 12]: 0.06 weight %
- 1st desorption weight % change [2, 13]: 0.13 weight %
- 1st sorption weight % change [2, 13]: 0.11 weight %
- 2nd desorption weight % change [2, 13]: 0.10 weight %
- 2nd sorption weight % change [2, 13]: 0.08 weight %
- 1st desorption weight % change [2, 14]: 0.16 weight %
- 1st sorption weight % change [2, 14]: 0.12 weight %
- 2nd desorption weight % change [2, 14]: 0.13 weight %
- 2nd sorption weight % change [2, 14]: 0.10 weight %
- 1st sorption weight % change [2, 15]: 0.15 weight %
- 2nd desorption weight % change [2, 15]: 0.16 weight %
- 1st sorption weight % change [2, 16]: 0.17 weight %
- 2nd desorption weight % change [2, 16]: 0.18 weight %
- 1st sorption weight % change [2, 17]: 0.20 weight %
- 2nd desorption weight % change [2, 17]: 0.21 weight %
- 1st sorption weight % change [2, 18]: 0.23 weight %
- 2nd desorption weight % change [2, 18]: 0.25 weight %
- 1st sorption weight % change [2, 19]: 0.35 weight %
- 2nd desorption weight % change [2, 19]: 0.38 weight %
- 1st sorption weight % change [2, 20]: 0.64 weight %
- 2nd desorption weight % change [2, 20]: 0.64 weight %
- Water absorbed ([2]; up to 95% RH at 25° C.): about 0.64%
- Form change and crystallinity by XRPD after compression ([3]; 5 minutes under 10 MPa, hydraulic press): no form change and no obvious crystallinity decrease
- Form change and crystallinity by XRPD after dry grinding ([3]; ground manually with mortar and pestle for 5 min): no form change and slight crystallinity decrease
- Form change and crystallinity by XRPD after wet granulation ([3]; water or ethanol, ground 3 min, dried 10 min): no form change and no obvious crystallinity decrease
- Relative stability among solid forms ([4]; among Forms A-J): most stable form among Forms A-J
- Form change by XRPD after solubility test [5]: no form change
- XRPD of residual solids [5, 21]: Form B
- XRPD of residual solids [5, 22]: Form B
- XRPD of residual solids ([5]; after solubility test in water): Form B
- Solubility ([5]; mouse plasma): 342 µg/mL and 344 µg/mL
- Solubility ([5]; pH 7.4, PBS buffer): 78 µg/mL
- Solubility ([5]; water): 14 µg/mL and 13 µg/mL
- Solubility (in words) ([5]; water, mouse plasma): comparable low solubility

SMILES: CC(=O)N(C)C.COCCn1c2c([n+](Cc3cnccn3)c1C)C(=O)c1ccccc1C2=O.COCCn1c2c([n+](Cc3cnccn3)c1C)C(=O)c1ccccc1C2=O.O=C([O-])c1cc2ccccc2c(Cc2c(O)c(C(=O)[O-])cc3ccccc23)c1O [Form H]
- Solid form conversion ([6]; after heating to 170° C.): converted to a mixture of Form A and Form B

SMILES: COCCn1c2c([n+](Cc3cnccn3)c1C)C(=O)c1ccccc1C2=O.COCCn1c2c([n+](Cc3cnccn3)c1C)C(=O)c1ccccc1C2=O.O=C([O-])c1cc2ccccc2c(Cc2c(O)c(C(=O)[O-])cc3ccccc23)c1O [Form A]
- Solid form conversion in competitive experiments ([4]; in ethanol, acetone, ACN and pyridine/water): converted to Form B
- Form change by XRPD after solubility test [5]: no form change
- Water solubility (in words) [5]: extremely low
- XRPD of residual solids [5, 21]: Form A
- XRPD of residual solids [5, 22]: Form A
- XRPD of residual solids ([5]; after solubility test in water): Form A
- Solubility ([5]; mouse plasma): 436 µg/mL and 403 µg/mL
- Solubility ([5]; pH 7.4, PBS buffer): 84 µg/mL and 86 µg/mL
- Solubility ([5]; water): 12 µg/mL and 13 µg/mL
- Solubility (in words) ([5]; water, mouse plasma): comparable low solubility

SMILES: CCO.COCCn1c2c([n+](Cc3cnccn3)c1C)C(=O)c1ccccc1C2=O.COCCn1c2c([n+](Cc3cnccn3)c1C)C(=O)c1ccccc1C2=O.O=C([O-])c1cc2ccccc2c(Cc2c(O)c(C(=O)[O-])cc3ccccc23)c1O [Form C]
- Solid form conversion ([6]; exposure to ambient condition about 2 hours and drying at 25° C. under vacuum about 2 hours): converted to a mixture of Form A and Form B

SMILES: CC(=O)N(C)C.COCCn1c2c([n+](Cc3cnccn3)c1C)C(=O)c1ccccc1C2=O.COCCn1c2c([n+](Cc3cnccn3)c1C)C(=O)c1ccccc1C2=O.O=C([O-])c1cc2ccccc2c(Cc2c(O)c(C(=O)[O-])cc3ccccc23)c1O [Form G]
- Solid form obtained on storage ([6]; storing at 25° C. for about 1 day): Form H
